Assay results reported in publication PMC9506485, “Synthesis and Structure–Activity Relationships for the Anti-Mycobacterial Activity of 3-Phenyl-N-(Pyridin-2-ylmethyl)Pyrazolo[1,5-a]Pyrimidin-7-Amines” (Pharmaceuticals, 2022).
In brackets after ≈: the same amount, converted by molar mass.

Assays:
[1] = Microsomal stability, mouse liver microsomes; assay type: in vitro ADME; conditions: for CLint scaled at 1 μM / half-life at 1 μM: CD-1, mouse, microsomes, pH 7.4; for microsomal CLint at 1 μM: CD-1, pH 7.4, mouse liver microsomes, read-out: MLM Clint(mic)
Protocol: (§1) Assays were performed by WuXi AppTec (Shanghai) Co., Ltd. The test compounds (Table 4) (at 1 μM) were incubated at 37 °C with liver microsomes from human or CD-1 mice in the presence of a NADPH regenerating system and phosphate buffer (100 mM, pH 7.4) at 0.5 mg/mL microsomal protein (the positive controls were testosterone, propafenone, and diclofenac). Samples were removed at time intervals of 0, 5, 10, 20, 30, and 60 min and immediately mixed with cold CH3CN (containing 0.1 μg/mL of tolbutamide as an internal standard) and then centrifuged prior to analysis by LCMS/MS.

[2] = tested on: Mycobacterium tuberculosis (strain H37Rv); assay: LORA minimum inhibitory concentration assay (low-oxygen/non-replicating); conditions: M.tb H37Rv, 90% inhibition of growth
[3] = tested on: VERO green monkey kidney cells; assay: VERO mammalian cell toxicity assay; assay type: cell-based; conditions: Chlorocebus sabaeus; inhibition of growth of VERO green monkey kidney epithelial cells
hERG = hERG (Homo sapiens, UniProt Q12809); assay: hERG channel blockade, manual patch clamp; assay type: cell-based; conditions: cloned hERG potassium channels, room temperature; for inhibition at 0.3 µM: read-out: hERG % inhib. at 0.3 µM; for inhibition at 1 µM: read-out: hERG % inhib. at 1.0 µM
Chain of hERG (Q12809 whole entry): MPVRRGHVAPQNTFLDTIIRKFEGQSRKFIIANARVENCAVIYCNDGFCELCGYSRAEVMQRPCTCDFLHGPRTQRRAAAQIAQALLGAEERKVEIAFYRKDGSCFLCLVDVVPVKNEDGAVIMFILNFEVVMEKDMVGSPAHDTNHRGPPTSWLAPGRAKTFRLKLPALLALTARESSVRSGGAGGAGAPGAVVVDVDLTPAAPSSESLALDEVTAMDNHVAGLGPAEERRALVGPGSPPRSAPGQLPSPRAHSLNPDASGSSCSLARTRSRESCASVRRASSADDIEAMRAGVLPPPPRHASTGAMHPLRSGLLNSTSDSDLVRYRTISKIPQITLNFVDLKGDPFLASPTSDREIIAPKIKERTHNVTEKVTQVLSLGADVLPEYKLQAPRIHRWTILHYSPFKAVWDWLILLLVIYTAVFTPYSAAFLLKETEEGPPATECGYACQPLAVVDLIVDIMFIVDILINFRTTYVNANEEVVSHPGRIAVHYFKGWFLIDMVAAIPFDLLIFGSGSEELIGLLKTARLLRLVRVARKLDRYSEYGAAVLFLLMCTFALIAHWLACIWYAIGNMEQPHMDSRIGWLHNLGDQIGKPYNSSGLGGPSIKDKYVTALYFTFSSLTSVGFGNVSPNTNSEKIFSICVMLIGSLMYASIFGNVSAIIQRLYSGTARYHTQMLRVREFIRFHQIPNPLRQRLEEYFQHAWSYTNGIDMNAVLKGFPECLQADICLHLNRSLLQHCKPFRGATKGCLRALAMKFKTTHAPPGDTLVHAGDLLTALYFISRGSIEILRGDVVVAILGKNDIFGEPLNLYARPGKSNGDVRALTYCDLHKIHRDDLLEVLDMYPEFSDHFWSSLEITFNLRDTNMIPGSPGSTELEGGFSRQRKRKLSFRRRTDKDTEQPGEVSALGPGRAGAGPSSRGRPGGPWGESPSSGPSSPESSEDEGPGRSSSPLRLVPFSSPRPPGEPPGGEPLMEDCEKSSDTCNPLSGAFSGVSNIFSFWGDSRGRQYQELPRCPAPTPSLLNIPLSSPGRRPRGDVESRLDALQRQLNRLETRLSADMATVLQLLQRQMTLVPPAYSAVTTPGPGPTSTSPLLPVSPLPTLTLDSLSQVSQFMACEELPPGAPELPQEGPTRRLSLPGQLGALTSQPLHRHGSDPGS
Protocol: Selected compounds were evaluated for hERG channel blockade (Table 4) by WuXi AppTec (Shanghai) Co., Ltd. This was carried out using cloned hERG potassium channels according to their standard manual patch clamp method. Two concentrations (0.3 and 1.0 µM) were tested (at room temperature), and at least three replicates were obtained for each. Amitryptyline was used as a standard.

[4] = tested on: Mycobacterium tuberculosis (strain H37Rv); assay: MABA minimum inhibitory concentration assay (aerobic/replicating); assay type: cell-based; conditions: Mycobacterium tuberculosis; M.tb H37Rv, aerobic/replicating; 90% inhibition of growth
[5] = Microsomal stability, human liver microsomes; assay type: in vitro ADME; conditions: pH 7.4; for microsomal CLint at 1 μM: human liver microsomes, read-out: HLM Clint(mic)
Protocol: as §1

[6] = human/mouse liver microsomes not distinguished, read-out: T½ values (microsomal stability)

Question: For `Fc1ccc(-c2cnn3c(NCc4ccccn4)cc(-c4ccc(OC(F)(F)F)cc4)nc23)cc1` [Compound 38, 3-(4-Fluorophenyl)-N-(pyridin-2-ylmethyl)-5-(4-(trifluoromethoxy)phenyl)pyrazolo[1,5-a]pyrimidin-7-amine], which CLint scaled at 1 μM [1] is on record?
Answer: < 38 mL/min/kg

Question: And the half-life at 1 μM [1]?
Answer: > 2.42 h

Question: And the microsomal CLint at 1 μM [1]?
Answer: < 9.6 µL/min/mg

Question: And the “MIC90 LORA” value [2]?
Answer: 1.1 µg/mL (≈ 2.29 µM)

Question: What about the IC50 [3] of the same compound?
Answer: > 32 µg/mL

Question: What about the inhibition at 0.3 µM (hERG) of the same compound?
Answer: 2%

Question: And the inhibition at 1 µM (hERG)?
Answer: 2%

Question: What about the MIC90 [4] of the same compound?
Answer: 1.9 µg/mL (≈ 3.96 µM)

Question: And the CLint scaled at 1 μM ([5]; human, microsomes)?
Answer: 15 mL/min/kg

Question: What about the half-life at 1 μM ([5]; human, microsomes) of the same compound?
Answer: 1.43 h

Question: What about the microsomal CLint at 1 μM [5] of the same compound?
Answer: 16 µL/min/mg

Question: And the half-life at 1 μM [5, 6]?
Answer: < 1.42 h

Question: Which CLint scaled at 1 μM [1] does the source give for `CC(C)(C)c1ccc(-c2cc(NCc3ccccn3)n3ncc(-c4ccc(F)cc4)c3n2)cc1` [Compound 36, 5-(4-(Tert-butyl)phenyl)-3-(4-fluorophenyl)-N-(pyridin-2-ylmethyl)pyrazolo[1,5-a]pyrimidin-7-amine] here?
Answer: < 38 mL/min/kg

Question: What about the half-life at 1 μM [1] of the same compound?
Answer: > 2.42 h

Question: And the microsomal CLint at 1 μM [1]?
Answer: < 9.6 µL/min/mg

Question: What about the “MIC90 LORA” value [2] of the same compound?
Answer: 1.9 µg/mL (≈ 4.21 µM)

Question: What about the IC50 [3] of the same compound?
Answer: > 32 µg/mL

Question: And the inhibition at 0.3 µM (hERG)?
Answer: 0%

Question: And the inhibition at 1 µM (hERG)?
Answer: 0%

Question: And the MIC90 [4]?
Answer: 1.7 µg/mL (≈ 3.76 µM)

Question: What about the CLint scaled at 1 μM ([5]; human, microsomes) of the same compound?
Answer: < 8.6 mL/min/kg

Question: What about the half-life at 1 μM ([5]; human, microsomes) of the same compound?
Answer: > 2.42 h

Question: And the microsomal CLint at 1 μM [5]?
Answer: < 9.6 µL/min/mg

Question: For `COc1ccc(-c2cc(NCc3ccccn3)n3ncc(-c4ccc(F)cc4)c3n2)cc1` [Compound 34, 3-(4-Fluorophenyl)-5-(4-methoxyphenyl)-N-(pyridin-2-ylmethyl)pyrazolo[1,5-a]pyrimidin-7-amine], which CLint scaled at 1 μM [1] is on record?
Answer: 88 mL/min/kg

Question: And the half-life at 1 μM [1]?
Answer: 1.05 h

Question: What about the microsomal CLint at 1 μM [1] of the same compound?
Answer: 22 µL/min/mg

Question: What about the “MIC90 LORA” value [2] of the same compound?
Answer: 0.25 µg/mL (≈ 0.588 µM)

Question: And the IC50 [3]?
Answer: > 32 µg/mL

Question: And the inhibition at 0.3 µM (hERG)?
Answer: 0%

Question: And the inhibition at 1 µM (hERG)?
Answer: 1%

Question: And the MIC90 [4]?
Answer: 1.5 µg/mL (≈ 3.53 µM)

Question: What about the CLint scaled at 1 μM ([5]; human, microsomes) of the same compound?
Answer: 16 mL/min/kg

Question: And the half-life at 1 μM ([5]; human, microsomes)?
Answer: 1.28 h

Question: What about the microsomal CLint at 1 μM [5] of the same compound?
Answer: 18 µL/min/mg

Question: And the half-life at 1 μM [5, 6]?
Answer: < 1.42 h

Question: With `Fc1ccc(-c2cnn3c(NCc4ccccn4)cc(-c4cccs4)nc23)cc1` [Compound 41, 3-(4-Fluorophenyl)-N-(pyridin-2-ylmethyl)-5-(thiophen-2-yl)pyrazolo[1,5-a]pyrimidin-7-amine] as the compound, how does the CLint scaled at 1 μM [1] read?
Answer: 163 mL/min/kg

Question: And the half-life at 1 μM [1]?
Answer: 0.567 h

Question: What about the microsomal CLint at 1 μM [1] of the same compound?
Answer: 41 µL/min/mg

Question: What about the “MIC90 LORA” value [2] of the same compound?
Answer: 0.36 µg/mL (≈ 0.897 µM)

Question: And the IC50 [3]?
Answer: > 32 µg/mL

Question: And the inhibition at 0.3 µM (hERG)?
Answer: 0%

Question: What about the inhibition at 1 µM (hERG) of the same compound?
Answer: 0%

Question: And the MIC90 [4]?
Answer: 0.99 µg/mL (≈ 2.47 µM)

Question: And the CLint scaled at 1 μM ([5]; human, microsomes)?
Answer: 75 mL/min/kg

Question: What about the half-life at 1 μM ([5]; human, microsomes) of the same compound?
Answer: 0.283 h

Question: And the microsomal CLint at 1 μM [5]?
Answer: 83 µL/min/mg

Question: And the half-life at 1 μM [5, 6]?
Answer: < 1.42 h

Question: For `Fc1ccc(-c2cnn3c(NCc4ccccn4)cc(-c4ccccc4F)nc23)cc1` [Compound 28, 5-(2-Fluorophenyl)-3-(4-fluorophenyl)-N-(pyridin-2-ylmethyl)pyrazolo[1,5-a]pyrimidin-7-amine], which CLint scaled at 1 μM [1] is on record?
Answer: 113 mL/min/kg

Question: And the half-life at 1 μM [1]?
Answer: 0.817 h

Question: What about the microsomal CLint at 1 μM [1] of the same compound?
Answer: 29 µL/min/mg

Question: And the “MIC90 LORA” value [2]?
Answer: 0.22 µg/mL (≈ 0.532 µM)

Question: And the IC50 [3]?
Answer: > 32 µg/mL

Question: And the inhibition at 0.3 µM (hERG)?
Answer: 17%

Question: And the inhibition at 1 µM (hERG)?
Answer: 36%

Question: And the MIC90 [4]?
Answer: 1.79 µg/mL (≈ 4.33 µM)

Question: What about the CLint scaled at 1 μM ([5]; human, microsomes) of the same compound?
Answer: 18 mL/min/kg

Question: And the half-life at 1 μM ([5]; human, microsomes)?
Answer: 1.15 h

Question: What about the microsomal CLint at 1 μM [5] of the same compound?
Answer: 20 µL/min/mg

Question: And the half-life at 1 μM [5, 6]?
Answer: < 1.42 h

Question: Which CLint scaled at 1 μM [1] does the source give for `Fc1ccc(-c2cnn3c(NCc4ccccn4)cc(-c4cccnc4)nc23)cc1` [Compound 39, 3-(4-Fluorophenyl)-N-(pyridin-2-ylmethyl)-5-(pyridin-3-yl)pyrazolo[1,5-a]pyrimidin-7-amine] here?
Answer: 445 mL/min/kg

Question: What about the half-life at 1 μM [1] of the same compound?
Answer: 0.2 h

Question: What about the microsomal CLint at 1 μM [1] of the same compound?
Answer: 112 µL/min/mg

Question: What about the “MIC90 LORA” value [2] of the same compound?
Answer: 0.30 µg/mL (≈ 0.757 µM)

Question: And the IC50 [3]?
Answer: > 32 µg/mL

Question: What about the inhibition at 0.3 µM (hERG) of the same compound?
Answer: 16%

Question: What about the inhibition at 1 µM (hERG) of the same compound?
Answer: 46%

Question: What about the MIC90 [4] of the same compound?
Answer: 2.3 µg/mL (≈ 5.8 µM)

Question: What about the CLint scaled at 1 μM ([5]; human, microsomes) of the same compound?
Answer: 57 mL/min/kg

Question: And the half-life at 1 μM ([5]; human, microsomes)?
Answer: 0.367 h

Question: What about the microsomal CLint at 1 μM [5] of the same compound?
Answer: 63 µL/min/mg

Question: What about the half-life at 1 μM [5, 6] of the same compound?
Answer: < 1.42 h

Question: With `CC(C)c1ccc(-c2cc(NCc3ccccn3)n3ncc(-c4ccc(F)cc4)c3n2)cc1` [Compound 35, 3-(4-Fluorophenyl)-5-(4-isopropylphenyl)-N-(pyridin-2-ylmethyl)pyrazolo[1,5-a]pyrimidin-7-amine] as the compound, how does the CLint scaled at 1 μM [1] read?
Answer: < 38 mL/min/kg

Question: And the half-life at 1 μM [1]?
Answer: > 2.42 h

Question: What about the microsomal CLint at 1 μM [1] of the same compound?
Answer: < 9.6 µL/min/mg

Question: What about the “MIC90 LORA” value [2] of the same compound?
Answer: 1.0 µg/mL (≈ 2.29 µM)

Question: And the IC50 [3]?
Answer: > 32 µg/mL

Question: What about the inhibition at 0.3 µM (hERG) of the same compound?
Answer: 1%

Question: What about the inhibition at 1 µM (hERG) of the same compound?
Answer: 1%

Question: What about the MIC90 [4] of the same compound?
Answer: 1.8 µg/mL (≈ 4.11 µM)

Question: What about the CLint scaled at 1 μM ([5]; human, microsomes) of the same compound?
Answer: < 8.6 mL/min/kg

Question: And the half-life at 1 μM ([5]; human, microsomes)?
Answer: > 2.42 h

Question: And the microsomal CLint at 1 μM [5]?
Answer: < 9.6 µL/min/mg
